Patent US6239171A, “Tocotrienols and tocotrienol-like compounds and methods for their use” (Lipogenics, Inc., priority 1998, dated 2001)

Columns and labels:
chickens [1] = test: Antibody titers to sheep red blood cells in chickens; assay type: in vivo, chicken; conditions: 4 weeks
Description: The model for this study was 6-week old female white leghorn chickens. Each group of 12 chickens was fed an unsupplemented chicken diet or a control diet supplemented with 50 ppm of a tocotrienol or 100 ppm of a commercially available hypercholesterolemic agent (Geraniol or Lovastatin). […] The chickens were fed over a period of 4 weeks, then the blood was drawn. The antibody response was determined by injecting the chickens i.p. with 0.5 ml of a 5% suspension of sheep red blood cells (RBCs) in PBS (v/v) which were previously washed three times. […] Relative IgG levels were determined by using 2-mercaptoethanol preincubation for 30 min. The relative IgM levels were calculated by subtracting the IgG antibody levels from total antibody levels. All antibody levels are expressed as the log base 2 of the highest titer that was needed to hemagglutinate an equal volume of 0.5% RBC suspension.

[2] = tested on: cholesterol 7α-hydroxylase; test: Hepatic cholesterol 7α-hydroxylase activity in hypercholesterolemic swine; assay type: in vivo; conditions: control diet + 50 ppm
Source text: All assays conducted on chicken or swine serum were done following the protocols described in A. A. Qureshi et al., "Lowering Of Serum Cholesterol In Hypercholesterolemic Humans By Tocotrienols" (Palmvitee), Am. J. Clin. Nutr., 53, pp. 1021S-26S (1991). All enzymatic assays were done following the protocols described in A. A. Qureshi et al., "Effects of Cereals and Culture Filtrate of Trichoderma viride on Lipid Metabolism of Swine", Lipids, 17, pp. 924 (1982). Plasma insulin, glucagon and TNF levels were measured using radioinnumoassay kits from Ventrex Laboratories, Inc. (Portland, Me.), ICN Biomedicals, Inc. (Costa Mesa, Calif.) and Genzyme Corp. (Cambridge, Mass.), respectively.
We next measured the effects of various tocotrienols from rice bran on HMG-CoA reductase and cholesterol 7α-hydroxylase in hypercholesterolemic swine. Since pigs are very similar to humans in their cholesterol metabolism, they provide a useful model from which to study hypercholesterolemia and related diseases. […] The serum cholesterol concentration in these swine is typically above 300-500 mg/dl, as compared to 120-160 mg/dl in normal adult swine. As a result, the pigs develop complicated atherosclerotic plaques that closely resemble advanced atherosclerotic lesions found in humans.
(§1) Each group of three 5-month old swine was administered either a control diet or a control diet supplemented with 50 ppm of TRF or 50 ppm of an individual tocotrienol. The samples were prepared as described in Example 11. After a 12 hour fast, serum and plasma samples were taken a 0 hrs, 21 days and 42 days from the start of the feeding period. After taking serum and plasma samples from the pigs at the end of the 42 day period, all of the swine were fasted for a total of 40 hours, followed by a 48 hour refeeding period. One swine from each group was sacrificed at that time and the liver, intestine, lung, heart, loin muscle, adipose tissue and ham muscle were removed.

chickens [3] = test: Plasma thromboxane B2 and platelet factor 4 in chickens fed supplemented diets; assay type: in vivo, chicken; conditions: control diet + 50 ppm, 4 weeks
Source text: We next measured the effects of TRF and its components on serum levels of apolipoprotein (a)1, apolipoprotein B, triglycerides and glucose and the plasma levels of thromboxane B2 and platelet factor 4.

[4] = tested on: hypercholesterolemic swine; test: Total cholesterol, triglyceride and glucose concentrations in tissues of hypercholesterolemic swine; assay type: in vivo
Description: as §1, with “The samples were prepared as described in Example 11.” left out
We next determined the effect of tocotrienols on the total cholesterol, triglyceride and glucose concentrations in various tissues of hypercholesterolemic swine.

[5] = control diet + 50 ppm, sheep red blood cells i.p.

**Q.** With `CC(C)=CCC/C(C)=C/CC/C(C)=C/CCC1CCc2cc(O)ccc2O1` (stereo not drawn) [P25, 3,4-dihydro-2-(4,8,12-trimethyltrideca-3'(E),7'(E),11'-trienyl)-2H-1-benzopyran-6-ol] as the molecule, how does the “total antibody titer and IgM titer compared to the control (in words)” value (chickens [1]; 50 ppm in diet) read?
**A.** increased

**Q.** What about the “IgG antibody titers in serum” value (chickens [1]; [5]) of the same molecule?
**A.** 2.43 ± 1.40 Log 2

**Q.** And the “IgM antibody titers in serum” value (chickens [1]; [5])?
**A.** 8.92 Log 2

**Q.** And the “Total Ab titers in serum” value (chickens [1]; [5])?
**A.** 10.30 ± 1.16 Log 2

**Q.** And the “CHOLESTEROL 7α-HYDROXYLASE, percentage of baseline value” ([2]; 21 days)?
**A.** 101.09%

**Q.** What about the “Cholesterol 7α-hydroxylase” value ([2]; 21 days) of the same molecule?
**A.** 4.62 pg/min/mg of microsomes

**Q.** And the “CHOLESTEROL 7α-HYDROXYLASE, Percentage of Control Activity” value ([2]; 42 days)?
**A.** 98.58%

**Q.** What about the “CHOLESTEROL 7α-HYDROXYLASE, percentage of baseline value” ([2]; 42 days) of the same molecule?
**A.** 102.41%

**Q.** What about the “Cholesterol 7α-hydroxylase” value ([2]; 42 days) of the same molecule?
**A.** 4.68 pg/min/mg of microsomes

**Q.** What about the “Platelet Factor 4” value (chickens [3]) of the same molecule?
**A.** 7.27 ng/mL

**Q.** What about the “Platelet Factor 4, percentage of control” value (chickens [3]) of the same molecule?
**A.** 55.54%

**Q.** What about the “Thromboxane B2” value (chickens [3]) of the same molecule?
**A.** 16.42 pg/mL

**Q.** What about the “Thromboxane B2, percentage of control” value (chickens [3]) of the same molecule?
**A.** 63.54%

**Q.** And the “reduction of total cholesterol concentration in the ham muscle” value ([4]; 50 ppm in diet)?
**A.** 30%

**Q.** What about the “reduction of total cholesterol concentration in the liver” value ([4]; 50 ppm in diet) of the same molecule?
**A.** 37%

**Q.** What about the “TOTAL CHOLESTEROL CONCENTRATION, Adipose Tissue” value ([4]; control diet + 50 ppm, 42 days) of the same molecule?
**A.** 89.54 mg/100 gm

**Q.** What about the “TOTAL CHOLESTEROL CONCENTRATION, Ham Muscle” value ([4]; control diet + 50 ppm, 42 days) of the same molecule?
**A.** 69.17 mg/100 gm

**Q.** What about the “TOTAL CHOLESTEROL CONCENTRATION, Heart” value ([4]; control diet + 50 ppm, 42 days) of the same molecule?
**A.** 51.53 mg/100 gm

**Q.** What about the “TOTAL CHOLESTEROL CONCENTRATION, Intestine” value ([4]; control diet + 50 ppm, 42 days) of the same molecule?
**A.** 176.67 mg/100 gm

**Q.** And the “TOTAL CHOLESTEROL CONCENTRATION, Liver” value ([4]; control diet + 50 ppm, 42 days)?
**A.** 125.21 mg/100 gm

**Q.** And the “TOTAL CHOLESTEROL CONCENTRATION, Loin Muscle” value ([4]; control diet + 50 ppm, 42 days)?
**A.** 99.04 mg/100 gm

**Q.** And the “TOTAL CHOLESTEROL CONCENTRATION, Lung” value ([4]; control diet + 50 ppm, 42 days)?
**A.** 68.5 mg/100 gm

**Q.** And the “TOTAL CHOLESTEROL, Adipose Tissue, percentage of control” value ([4]; control diet + 50 ppm, 42 days)?
**A.** 81.85%

**Q.** And the “TOTAL CHOLESTEROL, Ham Muscle, percentage of control” value ([4]; control diet + 50 ppm, 42 days)?
**A.** 69.17%

**Q.** What about the “TOTAL CHOLESTEROL, Heart, percentage of control” value ([4]; control diet + 50 ppm, 42 days) of the same molecule?
**A.** 82.79%

**Q.** What about the “TOTAL CHOLESTEROL, Intestine, percentage of control” value ([4]; control diet + 50 ppm, 42 days) of the same molecule?
**A.** 81.98%

**Q.** What about the “TOTAL CHOLESTEROL, Liver, percentage of control” value ([4]; control diet + 50 ppm, 42 days) of the same molecule?
**A.** 62.11%

**Q.** And the “TOTAL CHOLESTEROL, Loin Muscle, percentage of control” value ([4]; control diet + 50 ppm, 42 days)?
**A.** 81.85%

**Q.** What about the “TOTAL CHOLESTEROL, Lung, percentage of control” value ([4]; control diet + 50 ppm, 42 days) of the same molecule?
**A.** 66.98%

**Q.** What about the “TOTAL GLUCOSE CONCENTRATION, Adipose Tissue” value ([4]; control diet + 50 ppm, 42 days) of the same molecule?
**A.** 14.96 mg/100 gm

**Q.** And the “TOTAL GLUCOSE CONCENTRATION, Ham Muscle” value ([4]; control diet + 50 ppm, 42 days)?
**A.** 53.05 mg/100 gm

**Q.** What about the “TOTAL GLUCOSE CONCENTRATION, Heart” value ([4]; control diet + 50 ppm, 42 days) of the same molecule?
**A.** 45.49 mg/100 gm

**Q.** And the “TOTAL GLUCOSE CONCENTRATION, Intestine” value ([4]; control diet + 50 ppm, 42 days)?
**A.** 56.06 mg/100 gm

**Q.** And the “TOTAL GLUCOSE CONCENTRATION, Liver” value ([4]; control diet + 50 ppm, 42 days)?
**A.** 362.99 mg/100 gm

**Q.** And the “TOTAL GLUCOSE CONCENTRATION, Loin Muscle” value ([4]; control diet + 50 ppm, 42 days)?
**A.** 53.01 mg/100 gm

**Q.** And the “TOTAL GLUCOSE CONCENTRATION, Lung” value ([4]; control diet + 50 ppm, 42 days)?
**A.** 60.96 mg/100 gm

**Q.** What about the “TOTAL GLUCOSE, Adipose Tissue, percentage of control” value ([4]; control diet + 50 ppm, 42 days) of the same molecule?
**A.** 81.57%

**Q.** And the “TOTAL GLUCOSE, Ham Muscle, percentage of control” value ([4]; control diet + 50 ppm, 42 days)?
**A.** 98.57%

**Q.** What about the “TOTAL GLUCOSE, Heart, percentage of control” value ([4]; control diet + 50 ppm, 42 days) of the same molecule?
**A.** 92.37%

**Q.** What about the “TOTAL GLUCOSE, Intestine, percentage of control” value ([4]; control diet + 50 ppm, 42 days) of the same molecule?
**A.** 77.89%

**Q.** What about the “TOTAL GLUCOSE, Liver, percentage of control” value ([4]; control diet + 50 ppm, 42 days) of the same molecule?
**A.** 89.58%

**Q.** And the “TOTAL GLUCOSE, Loin Muscle, percentage of control” value ([4]; control diet + 50 ppm, 42 days)?
**A.** 74.41%

**Q.** What about the “TOTAL GLUCOSE, Lung, percentage of control” value ([4]; control diet + 50 ppm, 42 days) of the same molecule?
**A.** 91.08%

**Q.** What about the “TOTAL TRIGLYCERIDES CONCENTRATION, Adipose Tissue” value ([4]; control diet + 50 ppm, 42 days) of the same molecule?
**A.** 259.62 mg/100 gm

**Q.** What about the “TOTAL TRIGLYCERIDES CONCENTRATION, Ham Muscle” value ([4]; control diet + 50 ppm, 42 days) of the same molecule?
**A.** 182.98 mg/100 gm

**Q.** What about the “TOTAL TRIGLYCERIDES CONCENTRATION, Heart” value ([4]; control diet + 50 ppm, 42 days) of the same molecule?
**A.** 140.51 mg/100 gm

**Q.** And the “TOTAL TRIGLYCERIDES CONCENTRATION, Intestine” value ([4]; control diet + 50 ppm, 42 days)?
**A.** 345.37 mg/100 gm

**Q.** And the “TOTAL TRIGLYCERIDES CONCENTRATION, Liver” value ([4]; control diet + 50 ppm, 42 days)?
**A.** 384.00 mg/100 gm

**Q.** And the “TOTAL TRIGLYCERIDES CONCENTRATION, Loin Muscle” value ([4]; control diet + 50 ppm, 42 days)?
**A.** 189.18 mg/100 gm

**Q.** What about the “TOTAL TRIGLYCERIDES CONCENTRATION, Lung” value ([4]; control diet + 50 ppm, 42 days) of the same molecule?
**A.** 163.42 mg/100 gm

**Q.** What about the “TOTAL TRIGLYCERIDES, Adipose Tissue, percentage of control activity” value ([4]; control diet + 50 ppm, 42 days) of the same molecule?
**A.** 59.59%

**Q.** And the “TOTAL TRIGLYCERIDES, Ham Muscle, percentage of control activity” value ([4]; control diet + 50 ppm, 42 days)?
**A.** 98.44%

**Q.** What about the “TOTAL TRIGLYCERIDES, Heart, percentage of control activity” value ([4]; control diet + 50 ppm, 42 days) of the same molecule?
**A.** 97.43%

**Q.** What about the “TOTAL TRIGLYCERIDES, Intestine, percentage of control activity” value ([4]; control diet + 50 ppm, 42 days) of the same molecule?
**A.** 96.57%

**Q.** And the “TOTAL TRIGLYCERIDES, Liver, percentage of control activity” value ([4]; control diet + 50 ppm, 42 days)?
**A.** 89.44%

**Q.** And the “TOTAL TRIGLYCERIDES, Loin Muscle, percentage of control activity” value ([4]; control diet + 50 ppm, 42 days)?
**A.** 86.12%

**Q.** And the “TOTAL TRIGLYCERIDES, Lung, percentage of control activity” value ([4]; control diet + 50 ppm, 42 days)?
**A.** 95.03%
